Legend:
[1] = test system: neointima formation; settings: rats; cited from earlier work
[2] = target: Cdk9/cyclinT1 (Homo sapiens (Human), UniProt P50750); assay: Cdk9/CyclinT1 IMAP Protocol (fluorescence polarization kinase assay); type: biochemical; settings: Table 2; generated using one of the two Cdk9/cyclinT1 assays (IMAP or Alpha Screen), not specified which; unit inferred
In short: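 Reaction used 4 nM Cdk9/cyclinT1, 100 nM 5TAMRA-cdk7tide peptide and 6 uM ATP in 100 mM Tris pH 7.2 with MgCl2, 0.01% Tween-20, 1 mM DTT and 2.5% DMSO, running 4.5 h. Phosphopeptide was captured by IMAP binding reagent for >1 h, then read by fluorescence polarization (ex 531/em 595 nm).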

Cdk9/cyclinT1, sequence (P50750 whole entry): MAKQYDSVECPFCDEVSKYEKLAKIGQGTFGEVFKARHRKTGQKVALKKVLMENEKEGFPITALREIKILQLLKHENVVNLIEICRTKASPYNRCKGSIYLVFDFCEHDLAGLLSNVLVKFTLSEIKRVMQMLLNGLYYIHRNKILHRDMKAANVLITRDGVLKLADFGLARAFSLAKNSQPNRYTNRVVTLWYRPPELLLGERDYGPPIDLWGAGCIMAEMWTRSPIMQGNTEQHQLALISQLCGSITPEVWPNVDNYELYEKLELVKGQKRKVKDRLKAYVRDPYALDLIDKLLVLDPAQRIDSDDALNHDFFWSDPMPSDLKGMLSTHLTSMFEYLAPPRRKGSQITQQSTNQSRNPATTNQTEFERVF
Cdk9/cyclinT1, sequence (O60563 whole entry partner): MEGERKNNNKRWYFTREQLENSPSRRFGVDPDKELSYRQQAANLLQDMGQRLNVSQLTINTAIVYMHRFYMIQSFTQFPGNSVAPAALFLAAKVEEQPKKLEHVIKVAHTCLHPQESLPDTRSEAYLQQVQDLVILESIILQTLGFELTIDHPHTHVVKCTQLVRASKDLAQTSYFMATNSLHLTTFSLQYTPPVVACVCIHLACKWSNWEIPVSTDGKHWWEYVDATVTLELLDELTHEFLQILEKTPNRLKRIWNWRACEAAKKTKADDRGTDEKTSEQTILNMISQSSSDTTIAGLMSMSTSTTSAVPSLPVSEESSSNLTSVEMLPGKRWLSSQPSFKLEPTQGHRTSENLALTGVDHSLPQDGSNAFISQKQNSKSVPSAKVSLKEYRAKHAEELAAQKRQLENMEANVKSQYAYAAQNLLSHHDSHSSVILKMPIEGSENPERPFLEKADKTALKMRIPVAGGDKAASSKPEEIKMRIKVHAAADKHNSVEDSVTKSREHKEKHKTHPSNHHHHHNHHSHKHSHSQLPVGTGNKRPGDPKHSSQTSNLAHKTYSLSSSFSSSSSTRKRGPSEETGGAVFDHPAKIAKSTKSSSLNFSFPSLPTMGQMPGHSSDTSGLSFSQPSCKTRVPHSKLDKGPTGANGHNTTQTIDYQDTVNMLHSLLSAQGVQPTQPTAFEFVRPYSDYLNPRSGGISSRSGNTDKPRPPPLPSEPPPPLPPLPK

SMILES | IC50 [2] [µM] | inhibition of neointima formation [1]
COc1ccc(CNc2nc(N(CCO)CCO)nc3c2ncn3C(C)C)cc1 [CVT-313] |  | greater than 80%
NC[C@H]1CC[C@H](Nc2cc(-c3cccc(NCc4cc(F)ccc4F)n3)c(Cl)cn2)CC1 [Compound 61] | 0.0181 | 
NC[C@H]1CC[C@H](Nc2cc(-c3cccc(NCc4cccc(F)c4)n3)c(Cl)cn2)CC1 [Compound 4, N2′-(trans-4-(aminomethyl)cyclohexyl)-5′-chloro-N6-(3-fluorobenzyl)-2,4′-bipyridine-2′,6-diamine] | 0.00906 | 
Fc1cccc(CNc2cccc(-c3cc(NCC[C@H]4CCCNC4)ncc3Cl)n2)c1 [Compound 165] | 0.0079 | 
NCCNc1cc(-c2cccc(NCc3cccc(F)c3)n2)c(Cl)cn1 [Compound 159] | 1.38 | 
COC[C@@H](C)N[C@H]1CC[C@H](Nc2cc(-c3ccc(F)c(NCC(CO)CO)n3)c(Cl)cn2)CC1 [Compound 367, 2-((5′-chloro-5-fluoro-2′-((1R,4r)-4-((R)-1-methoxypropan-2-ylamino)cyclohexylamino)-2,4′-bipyridin-6-ylamino)methyl)propane-1,3-diol] | 0.0031 | 
CN(C)CC(=O)N1CCC(Nc2cc(-c3cccc(NCc4cccc(F)c4)n3)c(Cl)cn2)CC1 [Compound 85] | 0.0685 | 
Clc1cnc(NC2CCNCC2)cc1-c1cccc(NCc2ccccc2)n1 [Compound 69] | 0.154 | 
O[C@H]1CC[C@H](Nc2cc(-c3cccc(NC4CCNCC4)n3)c(Cl)cn2)CC1 [Compound 8, trans-4-(5′-chloro-6-(piperidin-4-yl-amino)-2,4′-bipyridin-2′-yl-amino)cyclohexanol] | 0.0848 | 
CN1CCC[C@H]1C(=O)N1CCC(Nc2cc(-c3cccc(NCc4cccc(F)c4)n3)c(Cl)cn2)CC1 [Compound 86] | 0.0815 | 
Fc1cccc(CNc2cccc(-c3cc(N[C@H]4CCCNC4)ncc3Cl)n2)c1 [Compound 97] | 0.339 | 
N[C@H]1CC[C@@H](Nc2cc(-c3cccc(NCc4cccc(F)c4)n3)c(Cl)cn2)CC1 [Compound 139] | 0.0301 | 
CC(=O)NCCNc1cccc(-c2cc(N[C@H]3CC[C@H](O)CC3)ncc2Cl)n1 [Compound 124] | 0.116 | 
N[C@H]1CC[C@H](Nc2cc(-c3cccc(NCc4cc(F)cc(F)c4)n3)c(Cl)cn2)CC1 [Compound 29] | 0.00795 | 
Clc1cnc(NC2CCNCC2)cc1-c1cccc(NCc2ccncc2)n1 [Compound 72] | 0.114 | 
COC[C@H]1CC[C@H](Nc2cc(-c3cccc(NCc4cccc(F)c4)n3)c(Cl)cn2)CC1 [Compound 190] | 0.1 | 
CNC(=O)[C@H]1CC[C@H](Nc2cc(-c3cccc(NCc4cccc(F)c4)n3)c(Cl)cn2)CC1 [Compound 113] | 0.0502 | 
CC1(C)CC(CNc2ccc(Cl)c(-c3cc(N[C@H]4CC[C@H](NC[C@H](O)C(F)(F)F)CC4)ncc3Cl)n2)CCO1 (stereo partly drawn) [Compound 298, (2S)-3-(trans-4-(3,5′-dichloro-6-((2,2-dimethyltetrahydro-2H-pyran-4-yl)methyl)amino-2,4′-bipyridin-2′-yl-amino)cyclohexylamino)-1,1,1-trifluoropropan-2-ol] | 0.001 | 
N#Cc1ccc(-c2cc(N[C@H]3CC[C@H](N)CC3)ncc2Cl)nc1NCc1cccc(F)c1 [Compound 13, 2′-((1r,4r)-4-amonocyclohexylamino)-5′-chloro-6-(3-fluorobenzylamino)-2,4′-bipyridine-5-carbonitrile] | 0.00795 | 
Fc1cccc(CNc2cccc(-c3cc(NC[C@@H]4CCCNC4)ncc3Cl)n2)c1 [Compound 166] | 0.027 | 
NC(=O)c1ccc(-c2cc(N[C@H]3CC[C@H](N)CC3)ncc2Cl)nc1NCc1cccc(F)c1 [Compound 14, 2′-((1r,4r)-4-aminocyclohexylamino)-5′-chloro-6-(3-fluorobenzylamino)-2,4′-bipyridine-5-carboxamide] | 0.522 | 
N[C@H]1CC[C@H](Nc2cc(-c3cccc(NCc4cc(F)ccc4F)n3)c(Cl)cn2)CC1 [Compound 39] | 0.0089 | 

Further lines, with some results ahead:

IC50 [2] [µM] | SMILES | inhibition of neointima formation [1]
0.0158 | Nc1ncc(CNc2cccc(-c3cc(N[C@H]4CC[C@H](N)CC4)ncc3Cl)n2)cn1 [Compound 109] | 
0.183 | CN1CCC(CNc2cc(-c3cncc(NCC4CCOCC4)n3)c(Cl)cn2)CC1 [Compound 209] | 
0.00017 | COC[C@@H](C)N[C@H]1CC[C@H](Nc2cc(-c3cccc(NCC4(C#N)CCOCC4)n3)c(Cl)cn2)CC1 [Compound 358, 4-((5′-chloro-2′-((1R,4r)-4-((R)-1-methoxypropan-2-ylamino)cyclohexylamino)-2,4′-bipyridin-6-ylamino)methyl)tetrahydro-2H-pyran-4-carbonitrile] | 
0.001 | CCN(CC)[C@H]1CC[C@H](Nc2cc(-c3cccc(NCC4(C#N)CCOCC4)n3)c(Cl)cn2)CC1 [Compound 366, 4-((5′-chloro-2′-((1r,4r)-4-(diethylamino)cyclohexylamino)-2,4′-bipyridin-6-ylamino)methyl)tetrahydro-2H-pyran-4-carbonitrile] | 
0.009 | N[C@H]1CC[C@H](CNc2cc(-c3cccc(NCc4cccc(F)c4)n3)c(Cl)cn2)CC1 [Compound 169] | 
0.002 | O=S1(=O)CCC(N[C@H]2CC[C@H](Nc3cc(-c4nc(NCC5CCOCC5)ccc4Cl)c(Cl)cn3)CC2)CC1 [Compound 348, 3,5′-dichloro-N6-((tetrahydro-2H-pyran-4-yl)methyl)-N2′-(trans-4-(1,1-dioxo-tetrahydro-2H-thiopyran-4-ylamino)cyclohexyl)-2,4′-bipyridine-2′,6-diamine] | 
0.00794 | N[C@H]1CC[C@H](Nc2cc(-c3cncc(NCC4CCOCC4)n3)c(Cl)cn2)CC1 [Compound 203, trans-N1-(5-chloro-4-(6-((tetrahydro-2H-pyran-4-yl)methyl)aminopyrazin-2-yl)pyridin-2-yl)cyclohexane-1,4-diamine] | 
0.0003 | COC[C@@H](C)N[C@H]1CC[C@H](Nc2cc(-c3cccc(NCC4(C#N)CCOCC4)n3)c(Cl)cn2)CC1 [Compound 310, 4-((5′-chloro-2′-(trans-4-((R)-1-methoxypropan-2-yl-amino)cyclohexylamino)-2,4′-bipyridin-6-ylamino)methyl)tetrahydro-2H-pyran-4-carbonitrile] | 
0.009 | COC[C@@H](C)N[C@H]1CC[C@H](Nc2cc(-c3cccc(NCC4(OC)CCCCC4)n3)c(Cl)cn2)CC1 [Compound 306] | 
0.035 | COC[C@@H](C)N[C@H]1CC[C@H](Nc2cc(-c3nc(NCC4CCOCC4)ccc3C(F)(F)F)c(Cl)cn2)CC1 [Compound 309] | 
0.00795 | Clc1cnc(N[C@H]2CC[C@H](N3CCCC3)CC2)cc1-c1cnc(Cl)c(NCC2CCOCC2)n1 [Compound 225, 3-chloro-6-(5-chloro-2-(trans-4-(pyrrolidin-1-yl)cyclohexylamino)pyridin-4-yl)-N-((tetrahydro-2H-pyran-4-yl)methyl)pyrazin-2-amine] | 
0.00795 | N[C@H]1CC[C@H](Nc2cc(-c3cnc(Cl)c(NCC4CCOCC4)n3)c(Cl)cn2)CC1 [Compound 221] | 
0.001 | COC[C@@H](C)N[C@H]1CC[C@H](Nc2cc(-c3nc(NCC4CCOCC4)ccc3F)c(Cl)cn2)CC1 [Compound 293] | 
0.014 | Fc1cccc(CNc2cccc(-c3cc(NCC4CCNCC4)ncc3Cl)n2)c1 [Compound 162] | 
0.002 | COCCN[C@H]1CC[C@H](Nc2cc(-c3nc(NCC4CCOCC4)ccc3Br)c(Cl)cn2)CC1 [Compound 292, 3-bromo-5′-chloro-N2′-(trans-4-(2-methoxyethylamino)cyclohexyl)-N6-((tetrahydro-2H-pyran-4-yl)methyl)-2,4′-bipyridine-2′,6-diamine] | 
0.00794 | N[C@H]1CC[C@H](Nc2cc(-c3nc(NCC4CCOCC4)ccc3Cl)c(Cl)cn2)CC1 [Compound 253, N2′-(trans-4-aminocyclohexyl)-3,5′-dichloro-N6-((tetrahydro-2H-pyran-4-yl)methyl)-2,4′-bipyridine-2′,6-diamine] | 
0.0131 | COCCN(C)[C@H]1CC[C@H](Nc2cc(-c3cccc(NCC4CCOCC4)n3)c(Cl)cn2)CC1 [Compound 279] | 
0.0144 | O[C@H]1CC[C@H](Nc2cc(-c3cccc(NCC4CCCCC4)n3)c(Cl)cn2)CC1 [Compound 132] | 
0.00794 | N[C@H]1CC[C@H](Nc2cc(-c3nc(NCC4CCOCC4)c(Cl)cc3Cl)c(Cl)cn2)CC1 [Compound 266, N2′-(trans-4-aminocyclohexyl)-3,5,5′-trichloro-N6-((tetrahydro-2H-pyran-4-yl)methyl)-2,4′-bipyridine-2′,6-diamine] | 
10.5 | O[C@H]1CC[C@H](Nc2cc(-c3cccc(NC[C@H]4CCCNC4)n3)c(Cl)cn2)CC1 [Compound 121] | 
0.0534 | CS(=O)(=O)N[C@H]1CC[C@H](Nc2cc(-c3cncc(NCC4CCOCC4)n3)c(Cl)cn2)CC1 [Compound 245] | 
0.008 | COC[C@@H](C)N[C@H]1CC[C@H](Nc2cc(-c3cccc(NCC4COC(C)(C)CO4)n3)c(Cl)cn2)CC1 (stereo partly drawn) [Compound 307, 5′-chloro-N6-((5,5-dimethyl-1,4-dioxan-2-yl)methyl)-N2′-(trans-4-((R)-1-methoxypropan-2-yl-amino)cyclohexyl)-2,4′-bipyridine-2′,6-diamine] | 
